Consider 86 compounds from the supplement of paper PMC3493320.

The term IC50 denotes the concentration that inhibits the measured activity by half. High values mean weaker potency in that assay, low ones greater potency in that assay.

Molecules are shown by their SMILES.

This test relates to NCI-H295R. As to the kind of experiment: IC50 (antiproliferative, ATP content). As to conditions: 48 h. An outline of the steps:
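Adrenocortical carcinoma cells were plated at 1500 per well in 1536-well plates in serum-free DMEM with ITS supplement, left overnight, then given library compounds by pin transfer at 8 final concentrations spanning 0.6 nM to 46 µM and held 48 h at 37 °C, 5% CO2. ATP was measured as CellTiter-Glo luminescence after 20 min at room temperature and scaled between vehicle and positive-control wells. A four-parameter logistic model was fitted to each series. The IC50 was taken from these fits, and compounds without a concentration response were recorded as above the top dose.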
Consider `CC(C)=CCC/C(C)=C/CC/C(C)=C/CC/C(C)=C/CC1=C(C)C(=O)c2ccccc2C1=O`, for which the 50% inhibitory concentration (IC50) is more than 46 µM. To `CN1C[C@H](C(=O)N[C@]2(C)O[C@@]3(O)[C@@H]4CCCN4C(=O)[C@H](Cc4ccccc4)N3C2=O)C[C@@H]2c3cccc4[nH]cc(c34)C[C@H]21` belongs more than 46 µM. `Cc1cc2cc3c(C)cc(=O)oc3c(C)c2o1` gave an IC50 of more than 46 µM. To `Nc1ccc(S(=O)(=O)NC(=O)c2ccccc2)cc1` belongs more than 46 µM; to `CCOC(=O)[C@H](CCc1ccccc1)N[C@@H](C)C(=O)N1Cc2ccccc2C[C@H]1C(=O)O.Cl`, more than 46 µM.

`CNC1(c2ccccc2Cl)CCCCC1=O` (stereo unspecified): the IC50 was more than 46 µM. To `O=C(N[C@H](CO)[C@H](O)c1ccc([N+](=O)[O-])cc1)C(Cl)Cl` belongs more than 46 µM.

As to `[C@@H]1(O[C@H](CS1)N\2C(\N=C(/C=C/2)N)=O)CO`, the concentration for half-maximal inhibition (IC50) is more than 46 µM.

In turn, `CCCCCCCCCCCC(=O)[O][Sn]([CH2]CCC)([CH2]CCC)[O]C(=O)CCCCCCCCCCC` gave an IC50 of more than 46 µM. To `CNC1CCCN(c2c(F)cc3c(=O)c(C(=O)O)cn(C4CC4)c3c2OC)C1` (stereo unspecified) belongs more than 46 µM; to `Clc1ccccc1-c1nc(-c2ccncc2)no1`, more than 46 µM; to `CC(C)(CO)[C@@H](O)C(=O)NCCCO`, more than 46 µM. To `CCCCNC(=O)NS(=O)(=O)c1ccc(N)cc1` belongs more than 46 µM. To `O=C(O)C(N12)=[C@@]([C@@H]3OCCC3)S[C@]1([H])[C@]([C@@H](C)O)([H])C2=O` belongs more than 46 µM; to `CCOC(=O)c1cncn1C(C)c1ccccc1` (stereo unspecified), more than 46 µM. Take `CC(=O)Nc1ccc(C(=O)O)cc1`: the concentration for half-maximal inhibition (IC50) was more than 46 µM. To `CCOc1ccc2nc(S(N)(=O)=O)sc2c1` belongs more than 46 µM; to `COc1ccc2c(c1OC)C(=O)O[C@@H]2[C@H]1c2c(cc3c(c2OC)OCO3)CCN1C`, more than 46 µM.

For `O[C@H]1[C@@H]([C@]2=CC(O)=C(O)C=C2)OC3=C(C(O)=CC(O)=C3)C1`, the half-inhibitory concentration (IC50) is more than 46 µM. As to `CCC1(c2cccc(O)c2)CCCCN(C)C1.Cl` (stereo unspecified), the half-inhibitory concentration (IC50) is more than 46 µM.

In turn, `CCCC(=O)Nc1c(I)cc(I)c(CC(CC)C(=O)[O-])c1I.[Na+]` (stereo unspecified) returned an IC50 of more than 46 µM. The compound `OC[C@H](CC)NC(=O)[C@@H]2/C=C1/c3cccc4N\C=C(\C[C@H]1N(C)C2)c34` returned an IC50 of more than 46 µM. The compound `CN(C)CCc1c[nH]c2ccc(CS(=O)(=O)N3CCCC3)cc12` displayed a half-maximal inhibitory concentration (IC50) of more than 46 µM. To `CC(O)Cn1cnc2c1c(=O)n(C)c(=O)n2C` (stereo unspecified) belongs more than 46 µM.

In turn, `CC(C)(C#N)c1cc(Cn2cncn2)cc(C(C)(C)C#N)c1` came in with an IC50 of more than 46 µM. On to `O=[C@](NC5=CC(C(F)(F)F)=CC=C5C(F)(F)F)[C@@H]4[C@@]3(C)CC[C@]2([H])[C@@]1(C)C=CC(N[C@@]([H])1CC[C@]([H])2[C@@]([H])3CC4)=O`, for which the IC50 was more than 46 µM.

`Cc1ccc(S(=O)(=O)NC(=O)NN2CCCCCC2)cc1` registered an IC50 of more than 46 µM. In turn, `CCc1ccc(C(=O)C(C)CN2CCCCC2)cc1.Cl` (stereo unspecified) had an IC50 of more than 46 µM. To `O=[C@@](N[C@@H]([C@@](O)=O)CC2=CC=CC=C2)[C@@H]1CC[C@@H]([C@H](C)C)CC1` belongs more than 46 µM; to `O.O.O.O.O=C1[O][Mg]2([O]C(=O)c3ccccc3[O]2)[O]c2ccccc21`, more than 46 µM. For `Cc1ccc2c(c1)C1CN(C)CCC1N2` (stereo unspecified), the half-maximal inhibitory concentration (IC50) is more than 46 µM. As to `Nc1nc(NC2CC2)c2ncn([C@@H]3C=C[C@@H](CO)C3)c2n1`, the IC50 is more than 46 µM. To `OC(C#CCN1CCCC1)(c1ccccc1)c1ccccc1` belongs more than 46 µM; to `Cc1c(NC(=O)c2cccnc2)c(=O)n(-c2ccccc2)n1C`, more than 46 µM; to `COP(=S)(OC)SCN1C(=O)c2ccccc2C1=O`, more than 46 µM. To `Nc1ccc(S(=O)(=O)Nc2ccnn2-c2ccccc2)cc1` belongs more than 46 µM; to `NC(=O)N1c2ccccc2C=Cc2ccccc21`, more than 46 µM. For `CC1CCCC(C)N1NC(=O)c1ccc(Cl)c(S(N)(=O)=O)c1` (stereo unspecified), the 50% inhibitory concentration (IC50) is more than 46 µM. The compound `COc1ccc(/C=N/NC(=O)c2ccncc2)cc1OC` returned an IC50 of more than 46 µM. `O=C(SC[C@@H](C(N(C3)[C@@H](C[C@@H]3SC2=CC=CC=C2)[C@@](O)=O)=O)C)C1=CC=CC=C1` returned an IC50 of more than 46 µM.

Consider `CN1CCN(c2cc3c(nn2)Oc2ccccc2N3C)CC1`, for which the IC50 is more than 46 µM. The compound `NS(=O)(=O)c1cc2c(cc1Cl)NCNS2(=O)=O` came in with an IC50 of more than 46 µM. With `O=c1[nH]cnc2c1ncn2[C@H]1CC[C@@H](CO)O1`, the IC50 was more than 46 µM.

The compound `Cl.O=C(O)/C=C/c1ccc(Cn2ccnc2)cc1` showed a 50% inhibitory concentration (IC50) of more than 46 µM. To `Cl.Cl.OCCN1CCN(CC/C=C2\c3ccccc3Sc3ccc(Cl)cc32)CC1` belongs more than 46 µM. To `CN(C)C(=O)Oc1cccc([N+](C)(C)C)c1.[Br-]` belongs more than 46 µM; to `COc1cc2c(cc1OC)C(=O)C(CC1CCN(Cc3ccccc3)CC1)C2.Cl` (stereo unspecified), more than 46 µM. To `CC(C)(C)NC[C@H](O)COc1nsnc1N1CCOCC1` belongs more than 46 µM.

`CCN[C@H]1CN(CCCOC)S(=O)(=O)c2sc(S(N)(=O)=O)cc21` yielded an IC50 of more than 46 µM. To `FC(F)(F)C(F)(F)C(F)(F)C(F)(F)C(F)(F)C(F)(F)F` belongs more than 46 µM. To `CO[C@@H]1[C@@H](O[C@@H]2O[C@H](C)[C@@H](O[C@H]3C[C@@](C)(O)[C@@H](O)[C@H](C)O3)[C@H](N(C)C)[C@H]2O)[C@@H](CC=O)C[C@@H](C)[C@@H](O[C@@H]2CC[C@H](N(C)C)[C@@H](C)O2)/C=C/C=C/C[C@@H](C)OC(=O)C[C@H]1O` belongs more than 46 µM; to `CC(=O)CCCCn1c(=O)c2c(ncn2C)n(C)c1=O`, more than 46 µM; to `COc1ccc(C(=O)NCc2ccc(OCCN(C)C)cc2)cc1OC.Cl`, more than 46 µM. To `CN(C)C(=O)C(CCN1CCC(O)(c2ccc(Cl)cc2)CC1)(c1ccccc1)c1ccccc1` belongs more than 46 µM; to `C#C[C@]1(O)CC[C@H]2[C@@H]3CCC4=CC(=O)CCC4=C3C=C[C@@]21CC`, more than 46 µM; to `N=C(N)NCCN1CCCCCCC1.O=S(=O)(O)O.O=S(=O)(O)O`, more than 46 µM.

Consider `CCCNCC(O)COc1ccccc1C(=O)CCc1ccccc1` (stereo unspecified), for which the half-maximal inhibitory concentration (IC50) is more than 46 µM.

In the case of `FC(F)OC(Cl)C(F)(F)F` (stereo unspecified), the half-inhibitory concentration (IC50) was more than 46 µM. To `CCc1c2c(nc3ccc(OC(=O)N4CCC(N5CCCCC5)CC4)cc13)-c1cc3c(c(=O)n1C2)COC(=O)[C@]3(O)CC.Cl` belongs more than 46 µM; to `CC(COc1ccccc1)NC(C)C(O)c1ccc(O)cc1.Cl` (stereo unspecified), more than 46 µM; to `OC(=O)[C@@H](N)C\C2=C\Nc1ccc(O)cc12`, more than 46 µM.

Regarding `Cc1ccc(C(=O)c2ccc(CC(=O)[O-])n2C)cc1.O.O.[Na+]`, the IC50 was more than 46 µM.

With `Cc1cc(=O)n(-c2ccccc2)n1C`, the IC50 is more than 46 µM. To `CN(C)CCCN1c2ccccc2C(C)(C)c2ccccc21` belongs more than 46 µM; to `O=P(CC(N2C[C@H]([C@H]3CCCCC3)C[C@H]2[C@@](O)=O)=O)(OC(OC(CC)=O)C(C)C)CCCCC1=CC=CC=C1` (stereo partly specified), more than 46 µM. To `S=P(N1CC1)(N1CC1)N1CC1` belongs more than 46 µM. Compound `O=[C@](CO)[C@]([C@H]2C1)(O[C@@](CCC)([H])O2)[C@](C[C@@H]3O)(C)[C@@]1([C@@]([C@@]([C@](C)4C=C5)3[H])(CCC4=CC5=O)[H])[H]` had an IC50 of more than 46 µM. Turning to `CCC(=O)O[C@@H]1CC(=O)O[C@H](C)CC=CC=C[C@H](O)[C@H](C)C[C@H](CC=O)[C@H](O[C@@H]2O[C@H](C)[C@@H](O[C@H]3C[C@@](C)(O)[C@@H](OC(=O)CC)[C@H](C)O3)[C@H](N(C)C)[C@H]2O)[C@H]1OC`, the IC50 is more than 46 µM. Compound `O=Cc1ccco1` displayed a 50% inhibitory concentration (IC50) of more than 46 µM. To `CCC1(c2ccc(N)cc2)CCC(=O)NC1=O` (stereo unspecified) belongs more than 46 µM. To `C[C@]43CCC(=O)\C=C4\CC[C@@H]1[C@@H]3CC[C@]2(C)[C@@](O)(CC[C@@H]12)C#C` belongs more than 46 µM.

For the compound `NC(=O)OC[C@@H]1[C@H](NC(=O)/C(=N\OCC(=O)[O-])c2csc(N)n2)C(=O)N1S(=O)(=O)[O-].[Na+].[Na+]`, the IC50 was more than 46 µM.

In the case of `CCOC(=O)C(CS)NCCNC(CS)C(=O)OCC.Cl.Cl` (stereo unspecified), the IC50 is more than 46 µM. With `c1ccc2c(c1)OCC(CN1CCCCC1)O2` (stereo unspecified), the IC50 is more than 46 µM. To `CN(C)C(=O)Nc1ccc(Cl)c(Cl)c1` belongs more than 46 µM; to `COc1c2occc2c(OC)c2c(=O)cc(C)oc12`, more than 46 µM. To `O=[C@]([O-])[C@@H]2N1C([C@@]([H])(N3C(C)(C)NC(C4=CC=CC=C4)C3=O)[C@]([H])1SC(C)2C)=O.[K+]` (stereo partly specified) belongs more than 46 µM; to `Nc1nc(/C(=C/CC(=O)O)C(=O)N[C@@H]2C(=O)N3C(C(=O)O)=CCS[C@H]23)cs1`, more than 46 µM; to `FC(F)(F)COCC(F)(F)F`, more than 46 µM.

`CCCCCOC(=O)Nc1nc(=O)n([C@@H]2O[C@H](C)[C@@H](O)[C@H]2O)cc1F`: the concentration for half-maximal inhibition (IC50) is more than 46 µM. To `CC(=O)Oc1ccc(C2(c3ccc(OC(C)=O)cc3)C(=O)Nc3ccccc32)cc1` belongs more than 46 µM; to `N#CCCN.N#CCCN.O=C(O)/C=C/C(=O)O`, more than 46 µM. The compound `CCOC(=O)Nc1ccc2c(c1)N(C(=O)CCN1CCOCC1)c1ccccc1S2.Cl` had an IC50 of more than 46 µM.

`[C@@]2\1(\C(=C/C(/C=C/1)=O)CC[C@@H]4[C@@H]2CC[C@@]3([C@](O)(C)CC[C@H]34)C)C` registered an IC50 of more than 46 µM.

Compound `OC(O)C(Cl)(Cl)Cl` had an IC50 of more than 46 µM. For `Nc1c2c(nc3ccccc13)CCCC2`, the IC50 is more than 46 µM.
